Data taken from patent US20230085307A1, “PYRIDAZINONE COMPOUND AND HERBICIDE” (NISSAN CHEMICAL CORPORATION, priority 2019, published 2023).

Assays:
late watergrass = test: Test Example 1: herbicidal activity, application before weed generation under submerged conditions (Table 16, symbol A); assay type: in vivo, late watergrass (Echinochloa oryzicola); conditions: for Herbicidal effect on A: late watergrass (grade 0-5): 320 g/ha applied herbicide
Method in brief: (§1)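 Submerged Wagner pots (alluvial soil, 4 cm water) sown with weed seeds and planted with 2.5-leaf rice seedlings; emulsifiable concentrate diluted in water applied to water surface on sowing day. Held in greenhouse at 25-30 °C; injury scored 0-5 by herbicidal rate after three weeks.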

green foxtail [1] = test: Test Example 5: herbicidal effect by foliage application, plastic box (Table 20, symbol G); assay type: in vivo, green foxtail (Setaria viridis); conditions: foliage application; for effect on green foxtail (G): 320 g/ha, 3 weeks after application
Method in brief: (§2)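 Plants were sown into sterilized diluvial soil under about 1.5 cm cover and kept in a greenhouse at 25° C. to 30° C. Fourteen days on, foliage received an even spray of the diluted emulsion. Herbicidal or crop effect was judged three weeks afterwards.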

velvetleaf = test: Test Example 4: herbicidal effect by soil treatment (Table 19, symbol M); assay type: in vivo, velvetleaf (Abutilon theophrasti); conditions: for herbicidal effect rating, M: velvetleaf: 320 g/ha
Method in brief: (§3)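 Pre-emergence style soil spray: seeds under ~1.5 cm sterilized diluvial soil received a uniform coat of emulsion diluted to the predetermined herbicide amount. Greenhouse 25–30° C; readout at week three on previously defined criteria.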

blackgrass = test: Test Example 5: herbicidal effect by foliage application, plastic box (Table 20, symbol J); assay type: in vivo, blackgrass (Alopecurus myosuroides); conditions: foliage application; for effect on blackgrass (J): 320 g/ha, 3 weeks after application
Method in brief: as §2

oval-leafed pondweed = test: Test Example 1: herbicidal activity, application before weed generation under submerged conditions (Table 16, symbol C); assay type: in vivo, oval-leafed pondweed (Monochoria vaginalis); conditions: for Herbicidal effect on C: oval-leafed pondweed (grade 0-5): 320 g/ha applied herbicide
Method in brief: as §1

barnyard grass [2] = test: Test Example 3: herbicidal effect by foliage application, Wagner pot (Table 18, symbol H); assay type: in vivo, barnyard grass (Echinochloa crus-galli); conditions: for herbicidal effect on H (barnyard grass), rating 0-5: 320 g/ha
Method in brief: (§4)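 Plants were sown in alluvial soil held under 0.1–0.5 cm standing water and grown 14 days in a greenhouse at 25–30 °C. An emulsifiable formulation, water-diluted to the set dose, was then sprayed onto the foliage, and effects were scored three weeks later using previously defined criteria.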

rice flat sedge = test: Test Example 3: herbicidal effect by foliage application, Wagner pot (Table 18, symbol E); assay type: in vivo, rice flat sedge (Cyperus iria); conditions: for herbicidal effect on E (rice flat sedge), rating 0-5: 320 g/ha
Method in brief: as §4

green foxtail [3] = test: Test Example 4: herbicidal effect by soil treatment (Table 19, symbol G); assay type: in vivo, green foxtail (Setaria viridis); conditions: for herbicidal effect rating, G: green foxtail: 320 g/ha
Method in brief: as §3

southern crabgrass = test: Test Example 5: herbicidal effect by foliage application, plastic box (Table 20, symbol F); assay type: in vivo, southern crabgrass (Digitaria ciliaris); conditions: foliage application; for effect on southern crabgrass (F): 320 g/ha, 3 weeks after application
Method in brief: as §2

barnyard grass [4] = test: Test Example 4: herbicidal effect by soil treatment (Table 19, symbol H); assay type: in vivo, barnyard grass (Echinochloa crus-galli); conditions: for herbicidal effect rating, H: barnyard grass: 320 g/ha
Method in brief: as §3

redroot pigweed = test: Test Example 4: herbicidal effect by soil treatment (Table 19, symbol N); assay type: in vivo, redroot pigweed (Amaranthus retroflexus); conditions: for herbicidal effect rating, N: redroot pigweed: 320 g/ha
Method in brief: as §3

Italian ryegrass = test: Test Example 5: herbicidal effect by foliage application, plastic box (Table 20, symbol K); assay type: in vivo, Italian ryegrass (Lolium multiflorum); conditions: foliage application; for effect on Italian ryegrass (K): 320 g/ha, 3 weeks after application
Method in brief: as §2

chickweed = test: Test Example 4: herbicidal effect by soil treatment (Table 19, symbol P); assay type: in vivo, common chickweed (Stellaria media); conditions: for herbicidal effect rating, P: chickweed: 320 g/ha
Method in brief: as §3

Japanese bulrush = test: Test Example 2: herbicidal activity, application during weed generation under submerged conditions (Table 17, symbol B); assay type: in vivo, Japanese bulrush (Schoenoplectus juncoides); conditions: application during weed generation, submerged conditions
Method in brief: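 In this pot test, flooded alluvial soil (water depth 4 cm) holds all three species sown as a mixture. Once seedlings have one to two leaves, the compound's emulsion, thinned with water to the intended dose, is poured on the water; grading follows after three weeks on the earlier criteria.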

[5] = amount of applied herbicide 246 g/ha
[6] = 246 g/ha, three weeks after application

CCCC(=O)Oc1c(C)nn(C)c(=O)c1-c1c(-c2ccc(Cl)cc2)sc2ccc(F)cc12 [2-011]
Herbicidal effect on A: late watergrass (grade 0-5) (late watergrass): 3 (Herbicidal rate of 40% or more and less than 70%) | effect on green foxtail (G) (green foxtail [1]): 5 (Herbicidal rate of 90% or more (almost completely withered)) | herbicidal effect rating, M: velvetleaf (velvetleaf): 3 (Herbicidal rate of 40% or more and less than 70%) | effect on blackgrass (J) (blackgrass): 2 (Herbicidal rate of 20% or more and less than 40%) | Herbicidal effect on C: oval-leafed pondweed (grade 0-5) (oval-leafed pondweed): 3 (Herbicidal rate of 40% or more and less than 70%) | herbicidal effect on H (barnyard grass), rating 0-5 (barnyard grass [2]): 5 (Herbicidal rate of 90% or more (almost completely withered)) | herbicidal effect on E (rice flat sedge), rating 0-5 (rice flat sedge): 5 (Herbicidal rate of 90% or more (almost completely withered)) | herbicidal effect rating, G: green foxtail (green foxtail [3]): 2 (Herbicidal rate of 20% or more and less than 40%) | effect on southern crabgrass (F) (southern crabgrass): 4 (Herbicidal rate of 70% or more and less than 90%) | herbicidal effect rating, H: barnyard grass (barnyard grass [4]): 3 (Herbicidal rate of 40% or more and less than 70%) | herbicidal effect rating, N: redroot pigweed (redroot pigweed): 4 (Herbicidal rate of 70% or more and less than 90%) | effect on Italian ryegrass (K) (Italian ryegrass): 5 (Herbicidal rate of 90% or more (almost completely withered)) | herbicidal effect rating, P: chickweed (chickweed): 2 (Herbicidal rate of 20% or more and less than 40%) | herbicidal effect rating, B: Japanese bulrush (Japanese bulrush; AAH 320 g/ha): 3 (Herbicidal rate of 40% or more and less than 70%)

CCCCCOc1ccc(-c2sc3ccc(F)cc3c2-c2c(OC(=O)CCC)c(C)nn(C)c2=O)cc1 [2-038]
Herbicidal effect on A: late watergrass (grade 0-5) (late watergrass): 3 (Herbicidal rate of 40% or more and less than 70%) | effect on green foxtail (G) (green foxtail [1]): 1 (Herbicidal rate of 5% or more and less than 20%) | herbicidal effect rating, M: velvetleaf (velvetleaf): 0 (Herbicidal rate of 5% or less (almost no effect)) | effect on blackgrass (J) (blackgrass): 0 (Herbicidal rate of 5% or less (almost no effect)) | Herbicidal effect on C: oval-leafed pondweed (grade 0-5) (oval-leafed pondweed): 0 (Herbicidal rate of 5% or less (almost no effect)) | herbicidal effect on H (barnyard grass), rating 0-5 (barnyard grass [2]): 4 (Herbicidal rate of 70% or more and less than 90%) | herbicidal effect on E (rice flat sedge), rating 0-5 (rice flat sedge): 4 (Herbicidal rate of 70% or more and less than 90%) | herbicidal effect rating, G: green foxtail (green foxtail [3]): 0 (Herbicidal rate of 5% or less (almost no effect)) | effect on southern crabgrass (F) (southern crabgrass): 0 (Herbicidal rate of 5% or less (almost no effect)) | herbicidal effect rating, H: barnyard grass (barnyard grass [4]): 0 (Herbicidal rate of 5% or less (almost no effect)) | herbicidal effect rating, N: redroot pigweed (redroot pigweed): 3 (Herbicidal rate of 40% or more and less than 70%) | effect on Italian ryegrass (K) (Italian ryegrass): 0 (Herbicidal rate of 5% or less (almost no effect)) | herbicidal effect rating, P: chickweed (chickweed): 1 (Herbicidal rate of 5% or more and less than 20%) | herbicidal effect rating, B: Japanese bulrush (Japanese bulrush; AAH 320 g/ha): 0 (Herbicidal rate of 5% or less (almost no effect))

CCCC(=O)Oc1c(C)nn(C)c(=O)c1-c1c(-c2ccc(F)cc2OCC)oc2ccc(C)cc12 [9-010]
Herbicidal effect, A: late watergrass (late watergrass; [5]): 5 (Herbicidal rate of 90% or more (almost completely withered)) | herbicidal effect on green foxtail (G) (green foxtail [1]; [6]): 2 (Herbicidal rate of 20% or more and less than 40%) | M: velvetleaf, herbicidal effect grade (velvetleaf; [5]): 0 (Herbicidal rate of 5% or less (almost no effect)) | herbicidal effect on blackgrass (J) (blackgrass; [6]): 0 (Herbicidal rate of 5% or less (almost no effect)) | Herbicidal effect, C: oval-leafed pondweed (oval-leafed pondweed; [5]): 3 (Herbicidal rate of 40% or more and less than 70%) | Herbicidal effect on H (barnyard grass), foliage application (barnyard grass [2]; [5]): 4 (Herbicidal rate of 70% or more and less than 90%) | Herbicidal effect on E (rice flat sedge), foliage application (rice flat sedge; [5]): 4 (Herbicidal rate of 70% or more and less than 90%) | G: green foxtail, herbicidal effect grade (green foxtail [3]; [5]): 3 (Herbicidal rate of 40% or more and less than 70%) | herbicidal effect on southern crabgrass (F) (southern crabgrass; [6]): 3 (Herbicidal rate of 40% or more and less than 70%) | H: barnyard grass, herbicidal effect grade (barnyard grass [4]; [5]): 0 (Herbicidal rate of 5% or less (almost no effect)) | N: redroot pigweed, herbicidal effect grade (redroot pigweed; [5]): 0 (Herbicidal rate of 5% or less (almost no effect)) | herbicidal effect on Italian ryegrass (K) (Italian ryegrass; [6]): 0 (Herbicidal rate of 5% or less (almost no effect)) | P: chickweed, herbicidal effect grade (chickweed; [5]): 0 (Herbicidal rate of 5% or less (almost no effect)) | herbicidal effect rating, B: Japanese bulrush (Japanese bulrush; AAH 246 g/ha): 0 (Herbicidal rate of 5% or less (almost no effect))

Cc1nn(C)c(=O)c(-c2c(-c3ccc(F)cc3)sc3ccc(F)cc23)c1O [2-001]
Herbicidal effect on A: late watergrass (grade 0-5) (late watergrass): 2 (Herbicidal rate of 20% or more and less than 40%) | effect on green foxtail (G) (green foxtail [1]): 5 (Herbicidal rate of 90% or more (almost completely withered)) | M: velvetleaf, herbicidal effect rating (velvetleaf; AAH 320 g/ha): 5 (Herbicidal rate of 90% or more (almost completely withered)) | effect on blackgrass (J) (blackgrass): 4 (Herbicidal rate of 70% or more and less than 90%) | Herbicidal effect on C: oval-leafed pondweed (grade 0-5) (oval-leafed pondweed): 1 (Herbicidal rate of 5% or more and less than 20%) | herbicidal effect on H (barnyard grass), rating 0-5 (barnyard grass [2]): 5 (Herbicidal rate of 90% or more (almost completely withered)) | herbicidal effect on E (rice flat sedge), rating 0-5 (rice flat sedge): 5 (Herbicidal rate of 90% or more (almost completely withered)) | G: green foxtail, herbicidal effect rating (green foxtail [3]; AAH 320 g/ha): 4 (Herbicidal rate of 70% or more and less than 90%) | effect on southern crabgrass (F) (southern crabgrass): 5 (Herbicidal rate of 90% or more (almost completely withered)) | H: barnyard grass, herbicidal effect rating (barnyard grass [4]; AAH 320 g/ha): 3 (Herbicidal rate of 40% or more and less than 70%) | N: redroot pigweed, herbicidal effect rating (redroot pigweed; AAH 320 g/ha): 5 (Herbicidal rate of 90% or more (almost completely withered)) | effect on Italian ryegrass (K) (Italian ryegrass): 5 (Herbicidal rate of 90% or more (almost completely withered)) | P: chickweed, herbicidal effect rating (chickweed; AAH 320 g/ha): 4 (Herbicidal rate of 70% or more and less than 90%) | herbicidal effect rating, B: Japanese bulrush (Japanese bulrush; AAH 320 g/ha): 2 (Herbicidal rate of 20% or more and less than 40%)

CCOc1ccc(-c2sc3ccc(F)cc3c2-c2c(O)c(C)nn(C)c2=O)cc1 [2-030]
Herbicidal effect on A: late watergrass (grade 0-5) (late watergrass): 3 (Herbicidal rate of 40% or more and less than 70%) | effect on green foxtail (G) (green foxtail [1]): 2 (Herbicidal rate of 20% or more and less than 40%) | herbicidal effect rating, M: velvetleaf (velvetleaf): 3 (Herbicidal rate of 40% or more and less than 70%) | effect on blackgrass (J) (blackgrass): 0 (Herbicidal rate of 5% or less (almost no effect)) | Herbicidal effect on C: oval-leafed pondweed (grade 0-5) (oval-leafed pondweed): 0 (Herbicidal rate of 5% or less (almost no effect)) | herbicidal effect on H (barnyard grass), rating 0-5 (barnyard grass [2]): 5 (Herbicidal rate of 90% or more (almost completely withered)) | herbicidal effect on E (rice flat sedge), rating 0-5 (rice flat sedge): 5 (Herbicidal rate of 90% or more (almost completely withered)) | herbicidal effect rating, G: green foxtail (green foxtail [3]): 0 (Herbicidal rate of 5% or less (almost no effect)) | effect on southern crabgrass (F) (southern crabgrass): 3 (Herbicidal rate of 40% or more and less than 70%) | herbicidal effect rating, H: barnyard grass (barnyard grass [4]): 0 (Herbicidal rate of 5% or less (almost no effect)) | herbicidal effect rating, N: redroot pigweed (redroot pigweed): 4 (Herbicidal rate of 70% or more and less than 90%) | effect on Italian ryegrass (K) (Italian ryegrass): 3 (Herbicidal rate of 40% or more and less than 70%) | herbicidal effect rating, P: chickweed (chickweed): 3 (Herbicidal rate of 40% or more and less than 70%) | herbicidal effect rating, B: Japanese bulrush (Japanese bulrush; AAH 320 g/ha): 2 (Herbicidal rate of 20% or more and less than 40%)

COCc1ccc(-c2sc3ccc(F)cc3c2-c2c(O)c(C)nn(C)c2=O)cc1 [2-022]
Herbicidal effect on A: late watergrass (grade 0-5) (late watergrass): 2 (Herbicidal rate of 20% or more and less than 40%) | effect on green foxtail (G) (green foxtail [1]): 5 (Herbicidal rate of 90% or more (almost completely withered)) | herbicidal effect rating, M: velvetleaf (velvetleaf): 4 (Herbicidal rate of 70% or more and less than 90%) | effect on blackgrass (J) (blackgrass): 4 (Herbicidal rate of 70% or more and less than 90%) | Herbicidal effect on C: oval-leafed pondweed (grade 0-5) (oval-leafed pondweed): 5 (Herbicidal rate of 90% or more (almost completely withered)) | herbicidal effect on H (barnyard grass), rating 0-5 (barnyard grass [2]): 5 (Herbicidal rate of 90% or more (almost completely withered)) | herbicidal effect on E (rice flat sedge), rating 0-5 (rice flat sedge): 4 (Herbicidal rate of 70% or more and less than 90%) | herbicidal effect rating, G: green foxtail (green foxtail [3]): 5 (Herbicidal rate of 90% or more (almost completely withered)) | effect on southern crabgrass (F) (southern crabgrass): 5 (Herbicidal rate of 90% or more (almost completely withered)) | herbicidal effect rating, H: barnyard grass (barnyard grass [4]): 5 (Herbicidal rate of 90% or more (almost completely withered)) | herbicidal effect rating, N: redroot pigweed (redroot pigweed): 5 (Herbicidal rate of 90% or more (almost completely withered)) | effect on Italian ryegrass (K) (Italian ryegrass): 5 (Herbicidal rate of 90% or more (almost completely withered)) | herbicidal effect rating, P: chickweed (chickweed): 3 (Herbicidal rate of 40% or more and less than 70%) | herbicidal effect rating, B: Japanese bulrush (Japanese bulrush; AAH 320 g/ha): 2 (Herbicidal rate of 20% or more and less than 40%)
